Several values for one entry are separate records, joined by “and”; a condition that tells them apart may be missing. Equal entries are not always repeated. Entries after “also recorded” stand apart in the source; their conditions may differ. Where two headings read alike, the source gives them in different places. Marks after values point to notes of the source that are not given here.
Assays:
[1] = tested on: desmoglein-1 (DSG1); assay: 3D micro-epidermis model (EpiScreen): desmoglein-1 immunostaining; assay type: cell-based, human; conditions: for activation at 0.1 µM / activation at 0.01 µM: Homo sapiens, 72 h; for activation at 0.1 µM: 100 nM, Tox = toxic, read-out: DSG 100 nM; for activation at 0.1 µM / DSG 3 nM / DSG 30 nM / activation at 0.01 µM: supplementary data; for activation at 0.01 µM: 10 nM, read-out: DSG 10 nM; for DSG-1 expression: Table 1 summary
Description: (§1) To assess the effects of such therapy molecules on the epidermis, keratinocytes were grown in the presence of kinase inhibitors during 3 days with high calcium concentration to induce keratinocyte differentiation and generate a 3D-stratified differentiated epidermis. Drug impact on the epidermis development was assessed via different keratinocyte markers including: • Ki-67, an universally expressed protein among proliferating cells and absent in the quiescent cells; • Filaggrin, a filament-associated protein that binds to keratin fibers and is a marker of terminal differentiation; • Desmoglein-1, a component of desmosomes and differentiation marker expressed in all epidermal layer above the basal layer; and • Involucrin, an early differentiation marker expressed in the spinous and granular layers and a protein precursor of the epidermal cornified envelope.
(§2) Human epidermal keratinocytes cells (HPEKs) from a juvenile donor (CellnTec, Switzerland) are cultured in flasks in proliferation medium. Keratinocytes are seeded at passage 6 into EpiScreen™ (Abzena, Cambridge, UK) plates containing collagen 1 coated disc micropatterns (CYTOO, Grenoble, France). Four hours later, unattached cells are washed off and a high calcium medium is added to induce keratinocytes differentiation. The day after, keratinocytes are treated with screening compounds, and Trichostatin A is added at 0.3 μM as an internal positive control. After three days of treatment, micro-epidermises are fixed with a formalin solution 10% for 30 minutes, then permeabilized with 0.1% Triton. Several immunostainings are performed: actin (Acti-Stain 555, PHDH1, Cytoskeleton), nuclei (Hoechst, H3570, Invitrogen), and one biomarker of interest per well either anti-involucrin (HPA055211, Sigma), anti-filaggrin (HPA030189, Sigma) or anti-desmoglein-1 (HPA022128, Sigma). Antibodies are added overnight at 4° C. before staining with secondary antibody, anti-rabbit 488 (711-545-152, Jackson) for 2 hours at room temperature.
(§3) Images of each well are acquired with the Operetta HCS platform (Perkin Elmer, Waltham, MA, USA) using a ×10 objective in confocal mode in eight z-planes from 2 μm to 44 μm in steps of 6 μm in each of the 3 channels: actin, nuclei, and one biomarker of interest. The first step of the image analysis consists in detecting micro-epidermis structures on the first z-plane by segmenting the actin staining. Micro-epidermis structures are validated based on several area and roundness min and max criteria. Then, the area of each biomarker staining is measured inside the valid micro-epidermis masks through each z-plane. For all homogeneous biomarker staining, their intensity through the different planes is measured.
(§4) The actin network of each micro-epidermis is analyzed in each z-plane in order to determine the average 3D structure edges. The biomarker intensity is measured in each z-plane for each structure, and then averaged with the other results generated in the same well. Based on the data generated in the two previous steps, an average 3D reconstruction image is generated. It consists of a meshwork that delimits the structure edges, and a color scaled volume that corresponds to the biomarkers distribution and expression.
The effect of 8 oncology molecules, selected from first generation EGFRi and pan-kinase inhibitors which mostly target VEGFR and second and third generation therapies targeting main mutations relating to first generation treatment resistance, were assessed in vitro using a 3D micro-epidermis model. The drug incubation concentrations (3, 10, 30, 100 nM) were selected to reflect the clinically relevant (unbound) drug exposures (Table 2). The drug impact was assessed by analysis of tissue size and keratinocyte proliferation using Ki-67 staining and keratinocyte differentiation using filaggrin, desmoglein-1 and involucrin staining. […]

[2] = tested on: involucrin (IVL); assay: 3D micro-epidermis model (EpiScreen): involucrin immunostaining; assay type: cell-based, human; conditions: for activation at 0.1 µM / activation at 1 µM: Homo sapiens, 72 h; for activation at 0.1 µM: 100 nM; for IVL expression: Table 1 summary
Description: as §1, §2, §3, §4
The effect of 8 oncology molecules, selected from first generation EGFRi and pan-kinase inhibitors which mostly target VEGFR and second and third generation therapies targeting main mutations relating to first generation treatment resistance, were assessed in vitro using a 3D micro-epidermis model. […] The drug impact was assessed by analysis of tissue size and keratinocyte proliferation using Ki-67 staining and keratinocyte differentiation using filaggrin, desmoglein-1 and involucrin staining.
Size of the epidermis and the expression of the protein junction desmoglein-1 (DSG1), involucrin (IVL) and filaggrin (FLG) was assessed by immunostaining and compared to untreated control. […]

[3] = tested on: desmoglein-1 (DSG1); assay: 3D micro-epidermis model (EpiScreen): desmoglein-1 immunostaining; assay type: cell-based, human; conditions: supplementary data, Tox = toxic; for activation at 1 µM: Homo sapiens, 72 h, read-out: DSG 1 μM
[4] = tested on: Human epidermal keratinocytes cells (HPEKs), 3D micro-epidermis; assay: 3D micro-epidermis model (EpiScreen): epidermis size, toxicity, dose response, classification; assay type: cell-based; conditions: for effect on desmoglein-1, involucrin and filaggrin expression (dose dependence): 3, 10, 30 nM; for Dose in response: variation of protein expression at 3, 10, 30 nM (EGFRi) or 3, 10, 30, 100 nM (VEGFRi); for Dose in response / Dose/response: markers in brackets; for impact on all measured parameters / epidermis development: micro-epidermis model; for Dose/response: supplementary table, per run (1st or 2nd Run);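 as to all read-outs here: keratinocytes on micropatterned discs in high-calcium medium, drug exposure for three days, then fixation and confocal high-content imaging of actin, nuclei and a marker, vehicle DMSO-matched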
[5] = tested on: filaggrin (FLG); assay: 3D micro-epidermis model (EpiScreen): filaggrin immunostaining; assay type: cell-based, human; conditions: for activation at 0.01 µM / activation at 0.1 µM / activation at 1 µM: Homo sapiens, 72 h; for FLG expression: Table 1 summary;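 as to all read-outs here: human primary epidermal keratinocytes differentiated in high calcium into 3D micro-epidermises, compound-treated for three days, imaged by confocal high-content microscopy, filaggrin staining intensity quantified within actin-segmented structures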
[6] = cited from earlier work; for Cmax: maximal plasma concentration after a single daily-recommended dose, human; for Unbound fraction: unbound to plasma protein
[7] = supplementary data, two runs, Tox = toxic
[8] = 1 μM, supplementary data, two runs, Tox = toxic
[9] = Table 1 summary of drug effect on epidermis
[10] = Table 1 summary, pro-differentiation / pro-proliferation
[11] = Table 3, 30 nM (EGFRi) or 100 nM (VEGFRi), 3 days, vs untreated control, superscript = significance footnote
[12] = Table 3, pro-proliferation or pro-differentiation
[13] = 100 nM, supplementary data, two runs, Tox = toxic, read-out: FLG 100 nM

## COc1cc2c(Nc3ccc(Br)cc3F)ncnc2cc1OCC1CCN(C)CC1 [Vandetanib]
[1]
  activation at 0.1 µM: 5%
[2]; [7]
  activation at 0.1 µM: 25%
[2]; [8]
  activation at 1 µM: 51%
[3]; 1 μM
  activation at 1 µM: 30%

## C=CC(=O)Nc1cc(Nc2nccc(-c3cn(C)c4ccccc34)n2)c(OC)cc1N(C)CCN(C)C [Osimertinib]
[4]
  effect on desmoglein-1, involucrin and filaggrin expression (dose dependence): did not affect
  impact on all measured parameters / epidermis development: did not show any impact; also recorded: no impact
  Dose/response: No
[4]; [9]
  Epidermis size: Unchanged
[4]; [10]
  Classification: Unchanged
[4]; [11]
  Epidermis size: Unchanged^4
[4]; [12]
  Classification: Unchanged
[4]; Table 3
  Dose in response: No
[1]
  DSG 3 nM: −3%
  DSG 30 nM: 7%
  activation at 0.01 µM: -7%
  activation at 0.1 µM: 18%
  DSG-1 expression: Unchanged
[2]; supplementary data
  IVL 3 nM: 6%
  IVL 30 nM: 7%
[2]; supplementary data, two runs
  IVL 10 nM: 8%
[2]; [8]
  IVL 1 μM: Tox
[2]; [7]
  IVL 10 μM: Tox
  activation at 0.1 µM: 20%
[2]
  IVL expression: Unchanged
[5]; supplementary data
  FLG 3 nM: −12%
  FLG 30 nM: 2%
[5]; [8]
  FLG 1 μM: Tox
[5]; [7]
  FLG 10 μM: Tox
[5]; 10 nM, supplementary data, two runs, read-out: FLG 10 nM
  activation at 0.01 µM: -6%
[5]; [13]
  activation at 0.1 µM: 16%
[5]
  FLG expression: Unchanged
[3]; 1 μM
  DSG 1 μM: Tox
[3]
  DSG 10 μM: Tox
[6]
  Cmax: 627 nM
  Unbound fraction: 1.32%*
[6]; unbound plasma concentration, identified or calculated from Cmax and unbound fraction
  Unbound concentration: 8.2764 nM

## CNC(=O)c1ccc(N2C(=S)N(c3ccc(C#N)c(C(F)(F)F)c3)C(=O)C2(C)C)cc1F [Enzalutamide]
[4]
  Dose/response: No
[1]
  activation at 0.1 µM: -6%
[2]; [7]
  IVL 10 μM: 2%
  activation at 0.1 µM: 9.3%
[2]; [8]
  activation at 1 µM: 6.2%
[5]; [7]
  FLG 10 μM: −1%
[5]; [13]
  activation at 0.1 µM: 2%
[5]; [8]
  activation at 1 µM: 9.8%
[3]
  DSG 10 μM: −12%
[3]; 1 μM
  activation at 1 µM: -6%

## Cc1ccnc2c1NC(=O)c1cccnc1N2C1CC1 [Nevirapine]
[4]
  Dose/response: Yes (DSG)
[1]
  activation at 0.1 µM: -8%
[2]; [7]
  IVL 10 μM: 20%
  activation at 0.1 µM: 17%
[2]; [8]
  activation at 1 µM: 15%
[5]; [7]
  FLG 10 μM: 2%
[5]; [13]
  activation at 0.1 µM: 7%
[5]; [8]
  activation at 1 µM: 8%
[3]
  DSG 10 μM: −28%
[3]; 1 μM
  activation at 1 µM: -15%

## CC#CC(=O)N1CCC[C@H]1c1nc(-c2ccc(C(=O)Nc3ccccn3)cc2)c2c(N)nccn12 [Acalabrutinib]
[1]
  activation at 0.1 µM: -26%
[2]; [7]
  IVL 10 μM: 25%
  activation at 0.1 µM: 11%
[2]; [8]
  activation at 1 µM: 15%
[5]; [7]
  FLG 10 μM: 33%
[5]; [13]
  activation at 0.1 µM: 6%
[5]; [8]
  activation at 1 µM: 15%
[3]
  DSG 10 μM: −7.50%
[3]; 1 μM
  activation at 1 µM: -15%

## COc1cc2ncnc(Nc3ccc(F)c(Cl)c3)c2cc1OCCCN1CCOCC1 [Gefitinib]
[4]
  Toxicity at 1 μM: Yes
  effect on desmoglein-1, involucrin and filaggrin expression (dose dependence): increased in a dose-dependent manner only the expression of desmoglein-1
  Dose/response: Yes (DSG)
[4]; [9]
  Epidermis size: Unchanged
[4]; [10]
  Classification: Pro-differentiation
[4]; [11]
  Epidermis size: Unchanged^4
[4]; [12]
  Classification: Pro-
[4]; Table 3
  Dose in response: Yes
[1]
  DSG 3 nM: −8%
  DSG 30 nM: 15%
  activation at 0.01 µM: 0%
  activation at 0.1 µM: 41%
  DSG-1 expression: Increased
[2]; supplementary data
  IVL 3 nM: 23%
  IVL 30 nM: 23%
[2]; supplementary data, two runs
  IVL 10 nM: 8%
[2]; [7]
  activation at 0.1 µM: 29%
[2]
  IVL expression: Increased
[5]; supplementary data
  FLG 3 nM: 10%
  FLG 30 nM: 5%
[5]; read-out: FLG 10 nM, 10 nM, supplementary data, two runs
  activation at 0.01 µM: 3%
[5]; read-out: FLG 100 nM, 100 nM, supplementary data, two runs, Tox = toxic
  activation at 0.1 µM: 28%
[5]
  FLG expression: Increased
[6]
  Cmax: 356 nM
  Unbound fraction: 3.4%**

## CCCS(=O)(=O)Nc1ccc(F)c(C(=O)c2c[nH]c3ncc(-c4ccc(Cl)cc4)cc23)c1F [Vemurafenib]
[1]
  activation at 0.1 µM: -26%
[2]; [7]
  IVL 10 μM: −40%
  activation at 0.1 µM: -11%
[2]; [8]
  activation at 1 µM: -24%
[5]; [7]
  FLG 10 μM: 126%
[5]; [13]
  activation at 0.1 µM: 23%
[5]; [8]
  activation at 1 µM: 65%
[3]
  DSG 10 μM: −58%
[3]; 1 μM
  activation at 1 µM: -33%

## CC(=O)Nc1ccc(O)cc1 [Acetaminophen]
[4]; [11]
  Epidermis size: Unchanged^4
[4]; [12]
  Classification: Unchanged
[4]; Table 3
  Dose in response: No
[4]
  impact on all measured parameters / epidermis development: no effect
  Dose/response: No
[2]; [7]
  IVL 10 μM: 10% and 8%

— US12174172B2, “Method for evaluating the efficacy of a composition in reducing the effects of cancer therapeutics on skin” (Johnson & Johnson Consumer Inc., priority 2019, dated 2024)
